For the experiment, the system named is P388 leukemia ip, CD2F1 mice, survival T/C. Briefly: NCI In Vivo Anticancer Drug Screen. Data for tumor model P388 Leukemia (intraperitoneal) in CD2F1 (CDF1) mice. The note with it: endpoint: median survival time, higher = longer survival. In outline: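 Mice carrying the transplanted tumor received test compound or vehicle. Survival was recorded in each group, and the value is the treated-group measurement divided by that of the vehicle-treated control group.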

Setting [1] is: dose: 50.0 mg/kg/injection, schedule: Q01DX009 (ip), vehicle: saline.
The mark [2] stands for this setting: dose: 100.0 mg/kg/injection, schedule: Q01DX009 (ip), vehicle: saline.
The mark [3] stands for this setting: dose: 200.0 mg/kg/injection, schedule: Q01DX009 (ip), vehicle: saline.
The mark [4] stands for this setting: dose: 400.0 mg/kg/injection, schedule: Q01DX009 (ip), vehicle: saline.
The mark [5] stands for this setting: dose: 25.0 mg/kg/injection, schedule: Q01DX009 (ip), vehicle: saline.
Setting [6] is: dose: 50.0 mg/kg/injection, schedule: Q01DX009 (ip), vehicle: saline with Tween-80.

The structures appear in SMILES notation. Values joined by “and” are separate entries in the source; they are usually repeats but may differ in a detail not shown here. Equal entries are not always repeated. Inconclusive results and toxic doses are left out.

Turning to `N#CC/C(=N\Nc1ccc([N+](=O)[O-])cc1[N+](=O)[O-])c1ccccc1`, the T/C by setting is: (dose: 100.0 mg/kg/injection, schedule: Q04DX003 (ip), vehicle: saline with Tween-80) 100 % of control; (dose: 200.0 mg/kg/injection, schedule: Q04DX003 (ip), vehicle: saline with Tween-80) 90 % of control; (dose: 400.0 mg/kg/injection, schedule: Q04DX003 (ip), vehicle: saline with Tween-80) 95 % of control.

On to `OCC(O)C(O)C(O)Cc1ccc(O)cc1O` (stereo unspecified), for which the T/C by setting is: under setting [1], 98 % of control; under setting [2], 106 % of control; under setting [3], 104 % of control.

Take `CC12CCC(OC3CCCCO3)CC1=CCC1C2CCC2(C)C(O)/C(=N\O)CC12` (stereo unspecified): the T/C by setting is: (dose: 100.0 mg/kg/injection, schedule: Q04DX002 (ip), vehicle: saline) 91 % of control; (dose: 200.0 mg/kg/injection, schedule: Q04DX002 (ip), vehicle: saline) 94 % of control; (dose: 400.0 mg/kg/injection, schedule: Q04DX002 (ip), vehicle: saline) 90 % of control.

Regarding `C=C(C)C1CCc2c(C)cc(OC(C)=O)c(C(=O)OC(C)=O)c2C1` (stereo unspecified), the T/C reads like this: (dose: 5.0 mg/kg/injection, schedule: Q01DX005 (ip), vehicle: saline) 107 % of control; (dose: 10.0 mg/kg/injection, schedule: Q01DX005 (ip), vehicle: saline) 105 % of control; (dose: 20.0 mg/kg/injection, schedule: Q01DX005 (ip), vehicle: saline) 105 % of control.

Turning to `O=Cc1ccc(O)c(O)c1`, the T/C is 106 % of control and 109 % of control under setting [1]; 110 % of control under setting [2]; 107 % of control under setting [4].

Consider `CC(=O)Nc1ccc2c(Nc3ccc(NS(C)(=O)=O)cc3)c3ccccc3nc2c1`, for which the T/C (dose: 0.09 mg/kg/injection, schedule: Q01DX009 (ip), vehicle: saline) was 151 % of control; the T/C (dose: 0.09 mg/kg/injection, schedule: Q04DX003 (ip), vehicle: saline) was 156 % of control; the T/C (dose: 0.13 mg/kg/injection, schedule: Q01DX009 (ip), vehicle: saline) is 151 % of control; the T/C (dose: 0.13 mg/kg/injection, schedule: Q04DX003 (ip), vehicle: saline) is 175 % of control; the T/C (dose: 0.2 mg/kg/injection, schedule: Q01DX009 (ip), vehicle: saline) was 164 % of control; the T/C (dose: 0.2 mg/kg/injection, schedule: Q04DX003 (ip), vehicle: saline) was 166 % of control. In addition, the T/C (dose: 0.29 mg/kg/injection, schedule: Q01DX009 (ip), vehicle: saline) was 190 % of control; the T/C (dose: 0.3 mg/kg/injection, schedule: Q01DX009 (ip), vehicle: saline) was 169 % of control; the T/C (dose: 0.3 mg/kg/injection, schedule: Q04DX003 (ip), vehicle: saline) was 175 % of control; the T/C (dose: 0.44 mg/kg/injection, schedule: Q01DX009 (ip), vehicle: saline) was 193 % of control; the T/C (dose: 0.66 mg/kg/injection, schedule: Q01DX009 (ip), vehicle: saline) is 193 % of control; the T/C (dose: 1.0 mg/kg/injection, schedule: Q01DX009 (ip), vehicle: saline) is 200 % of control. Moreover, the T/C is 155 % of control (dose: 1.0 mg/kg/injection, schedule: Q04DX003 (ip), vehicle: saline); 177 % of control (dose: 2.2 mg/kg/injection, schedule: Q04DX003 (ip), vehicle: saline); 186 % of control (dose: 3.3 mg/kg/injection, schedule: Q04DX003 (ip), vehicle: saline); 227 % of control (dose: 5.0 mg/kg/injection, schedule: Q04DX003 (ip), vehicle: saline); 245 % of control (dose: 7.5 mg/kg/injection, schedule: Q04DX003 (ip), vehicle: saline).

On to `N=C(N)c1ccc(/C=C\C=C/c2cc3cc(C(=N)N)ccc3o2)cc1`, for which the T/C is 107 % of control (dose: 1.56 mg/kg/injection, schedule: Q04DX003 (ip), vehicle: saline with Tween-80); 122 % of control (dose: 3.12 mg/kg/injection, schedule: Q04DX003 (ip), vehicle: saline with Tween-80); 115 % of control (dose: 3.12 mg/kg/injection, schedule: Q04DX003 (ip), vehicle: saline); 124 % of control (dose: 12.5 mg/kg/injection, schedule: Q04DX003 (ip), vehicle: saline).

For `C=COC(=O)C(Cc1ccc([N+](=O)[O-])cc1)NC(=O)OCc1ccccc1` (stereo unspecified), the T/C is, setting by setting: (dose: 100.0 mg/kg/injection, schedule: Q04DX002 (ip), vehicle: Klucel (hydroxypropylcellulose) (HPC)) 97 % of control; (dose: 200.0 mg/kg/injection, schedule: Q04DX002 (ip), vehicle: Klucel (hydroxypropylcellulose) (HPC)) 100 % of control; (dose: 400.0 mg/kg/injection, schedule: Q04DX002 (ip), vehicle: Klucel (hydroxypropylcellulose) (HPC)) 92 % of control.

For the compound `CN(C)CCN(C)C(=N)N`, the T/C under setting [5] was 100 % of control and 105 % of control; the T/C under setting [1] is 104 % of control; the T/C under setting [2] was 91 % of control and 96 % of control; the T/C under setting [3] is 88 % of control and 94 % of control.

For `CC1(C)CCCC(C)(C2CCC3(C)C2C(O)CC2C4(C)CCC(O)C(C)(C)C4C(O)CC23C)O1` (stereo unspecified), the T/C (dose: 6.25 mg/kg/injection, schedule: Q01DX009 (ip), vehicle: Klucel (hydroxypropylcellulose) (HPC)) was 101 % of control; the T/C (dose: 12.5 mg/kg/injection, schedule: Q01DX009 (ip), vehicle: Klucel (hydroxypropylcellulose) (HPC)) was 99 % of control; the T/C (dose: 25.0 mg/kg/injection, schedule: Q01DX009 (ip), vehicle: Klucel (hydroxypropylcellulose) (HPC)) was 96 % of control; the T/C (dose: 50.0 mg/kg/injection, schedule: Q01DX009 (ip), vehicle: Klucel (hydroxypropylcellulose) (HPC)) was 92 % of control; the T/C (dose: 100.0 mg/kg/injection, schedule: Q01DX009 (ip), vehicle: Klucel (hydroxypropylcellulose) (HPC)) is 92 % of control.

For `COc1ccc(C(C#N)C(=O)CCC(=O)C(C#N)c2ccc(OC)c(OC)c2)cc1OC` (stereo unspecified), the T/C is 106 % of control (dose: 100.0 mg/kg/injection, schedule: Q04DX002 (ip), vehicle: saline with Tween-80) and 98 % of control (dose: 200.0 mg/kg/injection, schedule: Q04DX002 (ip), vehicle: saline with Tween-80).

With `CC(=O)NC(Cc1ccccc1F)C(=O)O` (stereo unspecified), the T/C under setting [1] was 94 % of control, the T/C under setting [2] is 94 % of control and the T/C under setting [3] was 97 % of control.

For `CC(=O)OCc1ccc[n+]([O-])c1`, the T/C was 99 % of control and 96 % of control under setting [5]; 99 % of control and 103 % of control under setting [1]; 99 % of control and 103 % of control under setting [2]; 99 % of control and 86 % of control under setting [3]; 99 % of control and 109 % of control under setting [4].

As for `O=C(CCl)Nc1cc2ccccc2oc1=O`, the T/C was 105 % of control (dose: 60.0 mg/kg/injection, schedule: Q01DX005 (ip), vehicle: saline with Tween-80) and 109 % of control (dose: 120.0 mg/kg/injection, schedule: Q01DX005 (ip), vehicle: saline with Tween-80).

For the compound `Cc1ccsc1C(=O)c1ccccc1`, the T/C (dose: 50.0 mg/kg/injection, schedule: Q01DX005 (ip), vehicle: Klucel (hydroxypropylcellulose) (HPC)) is 99 % of control; the T/C (dose: 100.0 mg/kg/injection, schedule: Q01DX005 (ip), vehicle: Klucel (hydroxypropylcellulose) (HPC)) was 94 % of control; the T/C (dose: 200.0 mg/kg/injection, schedule: Q01DX005 (ip), vehicle: Klucel (hydroxypropylcellulose) (HPC)) is 96 % of control.

Turning to `C[n+]1c(-c2ccc(/C=N/Nc3n[nH]c(=S)n3/N=C/c3ccc(-c4cn5ccsc5[n+]4C)cc3)cc2)cn2ccsc21`, the T/C (dose: 1.87 mg/kg/injection, schedule: Q01DX005 (ip), vehicle: saline with Tween-80) is 101 % of control.

`Nc1ccc(-c2nnc(-c3ccc(N)cc3)nn2)cc1`: the T/C reads like this: (dose: 100.0 mg/kg/injection, schedule: Q01DX001 (ip), vehicle: saline) 94 % of control; (dose: 200.0 mg/kg/injection, schedule: Q01DX001 (ip), vehicle: saline) 92 % of control; (dose: 400.0 mg/kg/injection, schedule: Q01DX001 (ip), vehicle: saline) 95 % of control.

With `c1ccc(-c2c[n+]3ccccc3n2-c2ccccc2)cc1`, the T/C is 100 % of control (dose: 1.56 mg/kg/injection, schedule: Q01DX009 (ip), vehicle: saline); 94 % of control (dose: 3.12 mg/kg/injection, schedule: Q01DX009 (ip), vehicle: saline); 101 % of control and 92 % of control (dose: 6.25 mg/kg/injection, schedule: Q01DX009 (ip), vehicle: saline).

As to `C[n+]1cccc(C(=S)[S-])c1`, the T/C runs as follows: (dose: 12.5 mg/kg/injection, schedule: Q01DX009 (ip), vehicle: saline with Tween-80) 100 % of control; (dose: 25.0 mg/kg/injection, schedule: Q01DX009 (ip), vehicle: saline with Tween-80) 95 % of control; under setting [6], 90 % of control.

With `CC(C)=NOc1ccccc1[N+](=O)[O-]`, the T/C was 111 % of control under setting [6]; 101 % of control (dose: 100.0 mg/kg/injection, schedule: Q01DX009 (ip), vehicle: saline with Tween-80); 93 % of control (dose: 200.0 mg/kg/injection, schedule: Q01DX009 (ip), vehicle: saline with Tween-80).

Source of the values: PubChem BioAssay AID330 (DTP/NCI, 2004).
